The target of one assay is LRRK2 wild type enzyme (Homo sapiens, UniProt Q5S007). The assay can be described thus: LRRK2 biochemical assay (LanthaScreen TR-FRET, LRRKtide substrate). To be noted: LRRK2 inhibition; 3 nM LRRK2, 400 nM LRRKtide, 25 μM ATP, 120 min, 23° C. As to the method: 10 mM compound solution was prepared in DMSO. An 11-point, 3-fold dilution was performed, with highest concentration at 10 μM. A 10 mM compound DMSO solution was added to Labcyte LDV plate and the compound concentration of source plate was 10 mM. The 1 st compound concentration of Inter plate (Labcyte 384 well PP plate) was 4.938×10^−1 mM which was prepared by transferring 1.5 μL of 10 mM compound from source plate to 28.9 μL DMSO. The 2nd compound concentration of Inter plate was 1.829×10^−2 mM which was prepared by transferring 60 nL of 10 mM compound from source plate to 32.7 μL DMSO. The 3rd compound concentration of Inter plate was 6.774×10^−4 mM which was prepared by transferring 2.5 nL of 10 mM compound from source plate to 36.9 μL DMSO. 100 nL of reference compound was dispensed in column 1 for low control wells and 100 nL of DMSO in column 24 for high control wells. Compounds were dispensed to column 2 to 23 of assay plate and backfilled with DMSO to a total volume of 100 nL.
A 2×LRRK2 enzyme solution (final concentration 3 nM) was prepared in assay buffer (Tris-HCl pH8.0: 50 mM, MgCl2: 5 mM, EDTA: 1 mM, Brij-35: 0.01%, 2 mM DTT). A 2× substrate solution was prepared: LRRK2 tide substrate (final concentration 400 nM) and ATP (final concentration 25 μM) in assay buffer. 5 μL 2×LRRK2 enzyme solution was dispensed to each well in assay plate by Multidrop. Assay plate was spun at 1,000 rpm for 1 min and incubated for 15 min at 23° C. 5 μL 2×ATP/LRRKtide solution was dispensed to each well in assay plate by Multidrop. Assay plate was spun at 1,000 rpm for 1 min and incubated for 120 min at 23° C.
A 2× detection solution was prepared: Tb-pERM (pLRRKtide) antibody (final concentration 0.25 nM) and EDTA (final concentration 10 mM) in TR-FRET dilution buffer. 10 μL 2× detection solution was dispensed to each well in assay plate to stop kinase reaction by Multidrop. Assay plate was spun at 1,000 rpm for 1 min and incubate for 30 min at 23° C. Assay plate was then read on Envision configured for LanthaScreen® TR-FRET.
In general terms: TR-FRET usually uses a lanthanide donor and a delayed reading to cut background.

For assay [1], the target named is T1, phosphorylation at Ser935 on wild type LRRK2 overexpressed in recombinant HEK-293T cells (Homo sapiens, UniProt Q5S007).
T1 construct: host or cells: HEK293T, transient transfection
The assay can be described thus: pS935 LRRK2 Cell Assay (HTRF). The assay is classed as cell-based. Particulars: LRRK2 inhibition; pS935 LRRK2 in transfected HEK293T cells, 2 hours compound incubation. The source says: The following protocol describes an in-vitro method for measuring phosphorylation at Ser935 on wild type LRRK2 overexpressed in recombinant HEK-293T cells. The method is based on HTRF technology, which combines Fluorescence Resonance Energy Transfer (FRET) with Time-Resolved measurement (TR). Phospho-LRRK2 (Ser935) is detected in a sandwich assay format using two different specific antibodies, one labelled with Eu^3+-Cryptate (donor) and the second with d2 (acceptor). When the fluorophores are in close proximity, excitation of the donor with a light source (flash lamp) stimulates FRET to the acceptor, which in turn fluoresces at a specific wavelength (665 nm). The fluorescence emission at 615 nm from the donor is also measured to allow ratiometric reduction of data. The specific signal is proportional to phospho-LRRK2 (Ser935).
Plasmid transient transfection: DMEM medium, FBS, DPBS, Trans-IT, OPTI-MEM reagents were allowed to warm to room temperature. HEK293T cells were cultured in DMEM+10% FBS complete medium in T150 flasks till around 80% confluency before transfection. Then cells were washed with 10 mL PBS and detached with 3 mL 0.25% typinsin. 30×10E6 HEK293T cells were seeded in DMEM+10% FBS complete medium to a 15 cm dish.
DNA, TransIT-LT1, OPTI-MEM complex were prepared: […] OPTI-MEM was added to a 15 mL cone tube, then […] plasmid was added to OPTI-MEM and mixed, followed by addition of 60 L TransIT-LT1 to the plasmid OPTI-MEM mixture and mixing. The resulting mixture was incubated for 15 minutes.
The above plasmid, DNA and OPTI-MEM mixture was added dropwise to the 15 cm dish, ensuring the drops were evenly distributed. The culture dish was gently rocked back and forth and from left to right to evenly distribute the complex. The transfected dish was incubated for 24 hours at 37° C., and 5% CO2.
Transfected HEK293T was collected in the 15 cm dish. Media was aspirated from tissue culture dish, and washed by dispensing 10 mL 1×DPBS into 15 cm dish. 1×DPBS was aspirated and 3 mL trypsin was dispensed to 15 cm dish. The dish was incubated with trypsin at room temperature for 3 min until the cells were detached. 10 mL of DMEM+10% FBS medium were added to 15 cm dish and triturated to ensure homogenous cell suspensions.
Homogenous cell suspensions were transferred to a 50 mL tube, and centrifuged for 5 minutes at 1,000 rmp/min. The supernatant was aspirated and resuspended with 20 mL complete medium. 1 mL of cell suspension was transferred for cell counting. The cell suspension was diluted to 2×10E5 cells/ml. 50 L cell suspensions were added to a 384-well plate. The plate was quick spun at 800 rpm for 1 minute, then incubate overnight at 37° C., 5% CO2.
Compound dispensing: compound was diluted (10 mM DMSO stock solution) and added to assay plate (top concentration: 10 μM, 3 fold serial dilution, 9 doses) with duplicates by Tecan liquid handler. The DMSO concentration of each well was normalized to 0.2%. Plates were quick spun at 1,000 rpm for 1 minute. Plates were incubated at 37° C., 5% CO2 for 2 hours.
1× lysis buffer solution supplemented with blocking reagent was prepared (e.g. 1 mL lysis buffer 4×+3 mL water+40 L stock blocking reagent 100×). Antibodies working solution was prepared by diluting 40-fold d2 and Cryptate antibodies with detection buffer (e.g. 1520 L detection buffer+40 L d2-antibody stock solution+[…] Cryptate-antibody stock solution).
After 2 hours incubation, cell plates were taken out from the incubator. Medium was removed by plate washer, then 16 µL of supplemented lysis buffer was added 1× to each well and incubated for 30 minutes at room temperature under shaking (800 rpm/min). 4 µL of antibodies working solution was added to each well, covered with a top seal and incubated overnight in 23° C. incubator.
HTRF signal was read (665 nm and 615 nm) on Wallac 2104 EnVision® multilabel reader. Data were analyzed by XL fit software.

T1 sequence (Q5S007 whole entry): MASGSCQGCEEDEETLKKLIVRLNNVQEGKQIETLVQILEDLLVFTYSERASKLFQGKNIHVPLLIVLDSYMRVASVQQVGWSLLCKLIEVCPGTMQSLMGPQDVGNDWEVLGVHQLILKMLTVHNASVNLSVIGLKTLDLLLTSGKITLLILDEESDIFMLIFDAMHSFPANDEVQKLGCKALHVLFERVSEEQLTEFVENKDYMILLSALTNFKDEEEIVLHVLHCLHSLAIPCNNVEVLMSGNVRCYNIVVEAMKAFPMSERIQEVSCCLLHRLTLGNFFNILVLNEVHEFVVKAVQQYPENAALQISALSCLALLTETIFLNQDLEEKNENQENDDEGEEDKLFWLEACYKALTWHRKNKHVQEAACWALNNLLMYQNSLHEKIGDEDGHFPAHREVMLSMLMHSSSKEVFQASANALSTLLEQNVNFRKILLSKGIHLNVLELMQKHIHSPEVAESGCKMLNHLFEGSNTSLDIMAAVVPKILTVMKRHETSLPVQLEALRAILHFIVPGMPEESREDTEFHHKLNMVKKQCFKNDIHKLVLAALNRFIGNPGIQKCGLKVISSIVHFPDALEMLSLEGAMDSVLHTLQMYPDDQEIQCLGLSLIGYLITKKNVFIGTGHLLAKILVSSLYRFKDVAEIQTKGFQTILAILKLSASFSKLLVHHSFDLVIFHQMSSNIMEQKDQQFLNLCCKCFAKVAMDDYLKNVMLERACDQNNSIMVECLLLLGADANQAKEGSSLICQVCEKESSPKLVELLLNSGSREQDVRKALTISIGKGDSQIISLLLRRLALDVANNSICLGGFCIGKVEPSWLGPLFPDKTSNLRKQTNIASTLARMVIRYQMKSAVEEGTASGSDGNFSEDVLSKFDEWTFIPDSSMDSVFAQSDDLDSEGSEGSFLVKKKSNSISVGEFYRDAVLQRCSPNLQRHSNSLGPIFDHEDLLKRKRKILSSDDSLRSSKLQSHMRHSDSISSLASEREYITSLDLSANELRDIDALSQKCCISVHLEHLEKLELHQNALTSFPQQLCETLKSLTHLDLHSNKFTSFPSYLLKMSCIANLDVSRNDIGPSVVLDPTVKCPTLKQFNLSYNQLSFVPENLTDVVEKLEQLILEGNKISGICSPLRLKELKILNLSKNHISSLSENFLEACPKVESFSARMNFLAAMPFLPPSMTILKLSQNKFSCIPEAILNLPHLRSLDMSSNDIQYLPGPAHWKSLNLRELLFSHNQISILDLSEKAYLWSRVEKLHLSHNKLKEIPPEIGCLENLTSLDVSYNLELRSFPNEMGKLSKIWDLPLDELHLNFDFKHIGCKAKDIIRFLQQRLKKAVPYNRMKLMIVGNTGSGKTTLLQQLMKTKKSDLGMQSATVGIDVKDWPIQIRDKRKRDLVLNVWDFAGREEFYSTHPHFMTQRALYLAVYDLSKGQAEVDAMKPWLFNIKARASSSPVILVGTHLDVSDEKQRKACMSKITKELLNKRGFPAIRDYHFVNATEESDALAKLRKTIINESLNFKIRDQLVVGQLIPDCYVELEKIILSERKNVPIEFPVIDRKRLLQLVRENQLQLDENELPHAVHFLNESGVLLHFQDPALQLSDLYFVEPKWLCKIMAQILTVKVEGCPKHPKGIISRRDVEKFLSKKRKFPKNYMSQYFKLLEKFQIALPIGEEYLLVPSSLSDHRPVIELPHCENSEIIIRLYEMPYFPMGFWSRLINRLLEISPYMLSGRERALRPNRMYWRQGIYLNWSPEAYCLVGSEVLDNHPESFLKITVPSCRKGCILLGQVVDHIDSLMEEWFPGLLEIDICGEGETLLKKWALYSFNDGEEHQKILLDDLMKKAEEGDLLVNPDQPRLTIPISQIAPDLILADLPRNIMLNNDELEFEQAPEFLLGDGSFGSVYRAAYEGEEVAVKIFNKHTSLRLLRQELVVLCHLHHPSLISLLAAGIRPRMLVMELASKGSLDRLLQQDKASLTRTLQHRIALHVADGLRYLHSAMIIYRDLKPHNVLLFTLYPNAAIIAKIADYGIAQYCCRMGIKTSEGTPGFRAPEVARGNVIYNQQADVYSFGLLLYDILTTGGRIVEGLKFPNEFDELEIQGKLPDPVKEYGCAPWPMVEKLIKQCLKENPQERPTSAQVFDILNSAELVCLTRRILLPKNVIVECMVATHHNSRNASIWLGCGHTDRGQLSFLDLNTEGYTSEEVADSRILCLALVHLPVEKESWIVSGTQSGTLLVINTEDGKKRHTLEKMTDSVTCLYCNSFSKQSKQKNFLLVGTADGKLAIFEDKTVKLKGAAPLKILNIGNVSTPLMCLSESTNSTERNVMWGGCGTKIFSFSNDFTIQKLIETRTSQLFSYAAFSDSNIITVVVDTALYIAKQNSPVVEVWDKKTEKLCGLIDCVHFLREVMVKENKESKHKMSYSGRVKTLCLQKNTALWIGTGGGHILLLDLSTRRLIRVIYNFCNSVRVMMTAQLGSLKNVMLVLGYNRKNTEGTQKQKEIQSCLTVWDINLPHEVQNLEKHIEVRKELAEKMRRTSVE
Chain of LRRK2 wild type enzyme (Q5S007 whole entry): as above

In the case of `C[C@@H]1C[C@H](n2c(Cc3noc(C4(S(C)(=O)=O)CC4)n3)nc3cnc4ccc(C#N)cc4c32)CCO1` [Compound 13, 2-{[5-(1-methanesulfonylcyclopropyl)-1,2,4-oxadiazol-3-yl]methyl}-1-[(2R,4R)-2-methyloxan-4-yl]-1H-imidazo[4,5-c]quioline-8-carbonitrile], the results for the IC50 (at LRRK2 wild type enzyme; in assay [1]) were 0.449 nM and 23.7 nM, respectively.

As for `C[C@@H]1C[C@H](n2c(Cc3noc(=O)[nH]3)nc3cnc4ccc(C#N)cc4c32)CCO1` [Compound 14, 1-[(2R,4R)-2-methyloxan-4-yl]-2-[(5-oxo-4,5-dihydro-1,2,4-oxadiazol-3-yl)methyl]-1H-imidazo[4,5-c]quinoline-8-carbonitrile], the IC50 against LRRK2 wild type enzyme was 7.84 nM; in assay [1], above 10000 nM.

Turning to `C[C@@H]1C[C@H](n2c(Cc3noc(=O)[nH]3)nc3cnc4ccc(Cl)cc4c32)CCO1` [Compound 15, 3-({8-chloro-1-[(2R,4R)-2-methyloxan-4-yl]-1H-imidazo[4,5-c]quinolin-2-yl}methyl)-4,5-dihydro-1,2,4-oxadiazol-5-one], the IC50 against LRRK2 wild type enzyme is 3.23 nM; in assay [1], above 10000 nM.

For `C[C@@H]1C[C@H](n2c(Cn3ccc(=O)c(C(=O)O)c3)nc3cnc4ccc(C#N)cc4c32)CCO1` [Compound 17, 1-({8-cyano-1-[(2R,4R)-2-methyloxan-4-yl]-1H-imidazo[4,5-c]quinolin-2-yl}methyl)-4-oxo-1,4-dihydropyridine-3-carboxylic acid], the IC50 against LRRK2 wild type enzyme is 2.88 nM; in assay [1], 2950 nM.

As for `COC(=O)c1cn(Cc2nc3cnc4ccc(C#N)cc4c3n2[C@@H]2CCO[C@H](C)C2)ccc1=O` [Compound 18, methyl 1-({8-cyano-1-[(2R,4R)-2-methyloxan-4-yl]-1H-imidazo[4,5-c]quinolin-2-yl}methyl)-4-oxo-1,4-dihydropyridine-3-carboxylate], the IC50 was 2.64 nM at LRRK2 wild type enzyme and 7020 nM in assay [1].

For the compound `COC(=O)c1cccn(Cc2nc3cnc4ccc(C#N)cc4c3n2[C@@H]2CCO[C@H](C)C2)c1=O` [Compound 19, methyl 1-({8-cyano-1-[(2R,4R)-2-methyloxan-4-yl]-1H-imidazo[4,5-c]quinolin-2-yl}methyl)-2-oxo-1,2-dihydropyridine-3-carboxylate], the IC50 was found to be 8.03 nM at LRRK2 wild type enzyme and 592 nM in assay [1].

For `C[C@@H]1C[C@H](n2c(Cc3cn([C@H]4C[C@@H](S(C)(=O)=O)C4)nn3)nc3cnc4ccc(C#N)cc4c32)CCO1` [Compound 21], the IC50 was determined as 1.41 nM against LRRK2 wild type enzyme and 1770 nM in assay [1].

The IC50 is the concentration at which inhibition is half-maximal.
